Assay results as given in US20190297888A1, “FUNGICIDAL COMPOUNDS AND MIXTURES FOR FUNGAL CONTROL IN CEREALS” (Dow AgroSciences LLC, priority 2016, published 2019).

Assays:
Format in all cases: in vivo
[1] = tested on: Puccinia triticina (PUCCRT); test: Field assessment of Compound I and penthiopyrad on brown rust of wheat (AUDPC % control); details: AUDPC-based, 2 field trials
Source text: (§1) Treatments consisting of the compound of Formula I and fungicide compound penthiopyrad were applied either using individually or as a two-way mixture of penthiopyrad with the compound of Formula I. The compound of Formula I was applied with Agnique BP-420 (50% w/w at 0.3% v/v) at 75 and 150 g ai/ha and Penthiopyrad (Vertisan) was applied at 125 and 200 g ai/ha. Commercial standards used in the studies were Fluxapyroxad (Imtrex), applied at 100 g ai/ha, and Metconazole+Fluxapyroxad (Librax), applied at 161 g ai/ha.
Fungicidal treatments containing the compound of Formula I and penthiopyrad, either individually or as a two-way mixture, were assessed against brown rust of wheat (PUCCRT) in two separate field trials. In the first trial, fungicidal treatments were applied at B37-39 (protectant, approximately 0% infection at application) growth stages of wheat (TRZAW, MV Vanek variety) under natural infection of brown rust. The treatment was part of an experimental trial designed as a randomized complete block with four replications and a plot of approximately 2×3 m. Fungicidal treatments were applied at a water volume of 200 L/ha, using a backpack plot sprayer with a TEEJET QJ90-2XTT110 015 Nozzle.
In the second trial, fungicidal treatments containing the compound of Formula I and penthiopyrad, either individually or as a two-way mixture, were applied at B33 (curative, approximately 6.6% infection at application) growth stage of wheat (TRZAW, Miradoux variety) under natural infection of brown rust. The treatments were part of an experimental trial designed as a randomized complete block with four replications and a plot of approximately 2×3 m. Fungicidal treatments were applied at a water volume of 200 L/ha, using a backpack plot sprayer with a HARDI MD 110-02 Nozzle.
(§2) Disease severity (percentage of visual diseased foliage on whole plot or leaves) in both field trials was recorded following EPPO PP1/26 guideline prescriptions. Area under the disease progress curve (AUDPC) was calculated for each plot in both trials using the sets of recorded severity data. Relative AUDPC (% control based on AUDPC) was calculated as percent of the nontreated control. Final results for the control of brown rust of wheat by the compound of Formula I, penthiopyrad and mixtures are reported as an average of the relative AUDPC calculated over all […] field trials. Statistical analysis was done according to ANOVA and Tukey's test (p=0.10).

[2] = tested on: Zymoseptoria tritici (SEPTTR); test: Field assessment of Compound I and penthiopyrad on leaf blotch of wheat (AUDPC % control); details: AUDPC-based, 3 field trials
Source text: as §1
Fungicidal treatments containing the compound of Formula I and penthiopyrad, either individually or as a two-way mixture, were assessed against leaf spot of wheat (SEPTTR) in three separate field trials. In the first trial, fungicidal treatments were applied at B33 (3% infection at application on L3) growth stage of winter wheat (TRZAW, Dinosor variety). The treatments were part of an experimental trial designed as a randomized complete block with four replications and a plot of approximately 1×6 m. Treatments were applied at water volume of 200 L/ha, using a backpack plot sprayer (BKPCKENG, FLATFANA nozzle) and pressurized at 200 kPa.
In the second trial, fungicidal treatments were applied twice at B32 (curative, 25% infection at application on L5) and B37-39 (5% infection at application on L3) growth stages of winter wheat (TRZAW, Consort variety). The treatments were part of an experimental trial designed as a randomized complete block with four replications and a plot of approximately 1×2 m. Treatments were applied at water volume of 200 L/ha, using a backpack plot sprayer (BKPCKAIR, Flat fan nozzle) and pressurized at 210 kPa.
In the final trial, fungicidal treatments were applied twice at B32 (protective, 15% infection at application on L6) and B37-39 (12% infection at application on L5) growth stages of winter wheat (TRZAW, Smaragd variety). The treatments were part of an experimental trial designed as a randomized complete block with four replications and a plot of approximately 2×3 m. Treatments were applied at water volume of 200 L/ha, using a backpack plot sprayer (BICYCAIR, FLATFANA nozzle) and pressurized at 220 kPa.
Disease severity (percentage of visual diseased foliage on whole plot or leaves) in […] field trials was recorded following EPPO PP1/26 guideline prescriptions. Area under the disease progress curve (AUDPC) was calculated for each plot in both trials using the sets of recorded severity data. Relative AUDPC (% control based on AUDPC) was calculated as percent of the nontreated control. Final results for the control of leaf spot of wheat by the compound of Formula I, penthiopyrad and mixtures are reported as an average of the relative AUDPC calculated over all three field trials. […]

[3] = tested on: Puccinia striiformis (PUCCST); test: Field assessment of Compound I and penthiopyrad on yellow rust of wheat (AUDPC % control); details: AUDPC-based, 2 field trials
Source text: as §1
Fungicidal treatments containing the compound of Formula I and penthiopyrad, either individually or as a two-way mixture, were assessed against yellow rust of wheat (PUCCST) in two separate field trials. In the first trial, fungicidal treatments were applied twice at B31-32 (early curative, 2% infection at application on L3) and B37-39 (0% infection at application on L) growth stages of winter wheat (TRZAW, Fairplay variety). The treatments were part of an experimental trial designed as a randomized complete block with four replications and a plot of approximately 1×6 m. Treatments were applied at water volume of 200 L/ha, using a backpack plot sprayer (BKPCKENG, F110-015 Hardi (3) Flat fan nozzle) and pressurized at 200 kPa.
In the second trial, fungicidal treatments containing the compound of Formula I and penthiopyrad, either individually or as a two-way mixture, were applied twice at B31-32 (early curative, 5% infection on L5 at application) and B37-39 (early curative, 5% infection on L1 and L2 at application) growth stages of wheat (TRZAW, Torch variety). The treatment was part of an experimental trial designed as a randomized complete block with four replications and a plot of approximately 2×3 m. Treatments were applied at water volume of 200 L/ha, using a backpack precision plot sprayer (BKCKAIR, F110-03 Hypro (4) Flat fan nozzle) and pressurized at 300 kPa.
as §2, with “yellow” for “brown”

## CC(C)CC(C)c1sccc1NC(=O)c1cn(C)nc1C(F)(F)F (stereo not drawn) [Penthiopyrad, N-[2-(1,3-dimethylbutyl)-3-thienyl]-1-methyl-3-(trifluoromethyl)-1H-pyrazole-4-carboxamide]
[1]; rate 125 g ai/ha
  PUCCRT % Control: 84.2%
[1]; rate 200 g ai/ha
  PUCCRT % Control: 85.1%
[2]; rate 125 g ai/ha
  SEPTTR % Control: 42.3%
[2]; rate 200 g ai/ha
  SEPTTR % Control: 51.4%
[3]; rate 125 g ai/ha
  PUCCST % Control: 39.6%
[3]; rate 200 g ai/ha
  PUCCST % Control: 46.5%
